We go through 13 compounds from patent US7244744B2, “Piperidines” (Icagen, Inc., priority 2001, dated 2007).

The target in this experiment is T1, PN3 (Homo sapiens, UniProt Q9Y5Y9).
T1 construct: expressed in transfected cells
T1 sequence (Q9Y5Y9 whole entry, species assumed): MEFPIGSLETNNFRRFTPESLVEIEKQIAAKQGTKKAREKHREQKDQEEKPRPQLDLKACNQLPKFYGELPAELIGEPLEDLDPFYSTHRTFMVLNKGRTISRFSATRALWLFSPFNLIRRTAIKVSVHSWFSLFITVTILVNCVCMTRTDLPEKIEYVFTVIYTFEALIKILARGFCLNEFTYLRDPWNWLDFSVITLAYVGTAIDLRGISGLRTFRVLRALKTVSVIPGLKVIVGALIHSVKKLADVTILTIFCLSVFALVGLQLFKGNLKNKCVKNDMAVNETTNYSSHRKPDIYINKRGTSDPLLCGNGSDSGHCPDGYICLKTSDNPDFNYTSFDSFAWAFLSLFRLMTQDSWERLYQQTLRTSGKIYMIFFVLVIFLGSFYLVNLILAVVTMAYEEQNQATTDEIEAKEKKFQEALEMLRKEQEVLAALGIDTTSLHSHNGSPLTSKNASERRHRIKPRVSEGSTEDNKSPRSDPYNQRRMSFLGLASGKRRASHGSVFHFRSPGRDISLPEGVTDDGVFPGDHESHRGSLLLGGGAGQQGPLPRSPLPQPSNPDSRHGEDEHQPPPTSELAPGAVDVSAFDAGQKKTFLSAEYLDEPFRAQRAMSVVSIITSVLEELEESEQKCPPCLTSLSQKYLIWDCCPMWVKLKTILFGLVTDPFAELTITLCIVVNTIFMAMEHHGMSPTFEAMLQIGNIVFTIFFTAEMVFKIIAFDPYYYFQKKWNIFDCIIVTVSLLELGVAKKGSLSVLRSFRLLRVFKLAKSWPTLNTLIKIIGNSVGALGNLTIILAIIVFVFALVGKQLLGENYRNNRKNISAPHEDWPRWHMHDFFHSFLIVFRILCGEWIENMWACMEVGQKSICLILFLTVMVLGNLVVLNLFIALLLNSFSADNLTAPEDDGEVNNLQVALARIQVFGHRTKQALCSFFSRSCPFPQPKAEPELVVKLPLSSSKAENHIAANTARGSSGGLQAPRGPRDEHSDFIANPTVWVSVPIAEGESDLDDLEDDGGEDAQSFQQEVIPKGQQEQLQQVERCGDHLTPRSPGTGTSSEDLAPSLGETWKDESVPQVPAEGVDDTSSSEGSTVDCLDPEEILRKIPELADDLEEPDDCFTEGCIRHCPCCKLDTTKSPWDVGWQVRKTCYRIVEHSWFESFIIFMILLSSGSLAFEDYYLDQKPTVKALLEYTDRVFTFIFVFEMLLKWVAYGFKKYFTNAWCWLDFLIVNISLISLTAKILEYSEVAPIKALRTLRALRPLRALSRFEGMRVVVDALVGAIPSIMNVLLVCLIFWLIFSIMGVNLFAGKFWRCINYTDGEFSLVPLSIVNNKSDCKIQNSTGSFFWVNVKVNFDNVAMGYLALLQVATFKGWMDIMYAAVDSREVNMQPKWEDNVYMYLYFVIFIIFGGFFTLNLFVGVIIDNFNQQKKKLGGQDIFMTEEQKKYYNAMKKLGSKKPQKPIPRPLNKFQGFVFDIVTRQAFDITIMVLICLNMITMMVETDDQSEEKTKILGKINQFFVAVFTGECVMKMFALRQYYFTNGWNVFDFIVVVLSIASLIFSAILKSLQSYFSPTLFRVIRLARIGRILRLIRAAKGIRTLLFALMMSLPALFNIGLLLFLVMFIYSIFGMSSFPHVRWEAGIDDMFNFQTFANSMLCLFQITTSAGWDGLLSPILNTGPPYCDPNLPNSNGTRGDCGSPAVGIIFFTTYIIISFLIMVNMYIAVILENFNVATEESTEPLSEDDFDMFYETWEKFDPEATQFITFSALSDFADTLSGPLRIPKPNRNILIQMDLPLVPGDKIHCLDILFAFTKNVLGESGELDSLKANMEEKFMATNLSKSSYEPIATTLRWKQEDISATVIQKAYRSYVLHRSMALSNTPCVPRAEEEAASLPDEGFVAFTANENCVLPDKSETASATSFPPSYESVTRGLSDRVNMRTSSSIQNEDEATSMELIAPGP
Nature of the experiment: 14C Guanidinium Ion Influx Binding Assay (flux assay). The experiment is classed as cell-based. The note with it: activity towards PN3, PN3 stably expressed in a host cell line, deltamethrine 10 μM. Here is the method: 1.1 ^14C Guanidinium Ion Influx Binding Assay
PN3 stably expressed in a host cell line were maintained in DMEM with 5% fetal bovine serum and 300 μg/ml G-418. The cells were subcultured and grown to confluence in 96-well plates 24-48 h before each experiment. After the growth medium was removed, the cells were washed with warm buffer (25 mM Hepes-Tris, 135 mM choline chloride, 5.4 mM potassium chloride, 0.98 mM magnesium sulfate, 5.5 mM glucose, and 1 mg/ml BSA, pH 7.4) and incubated in buffer on a 36° C. slide wanner for approximately 10 minutes. Various concentrations of the test compounds or standard sodium channel blockers (10 μM) and then deltamethrine (10 μM) were added to each well. After the cells were exposed to deltamethrine for 5 minutes, 5 μM of ^14C-guanidinium was added, incubated with the radioligand (30-60 min), washed with ice-cold buffer, and dissolved in 0.1N sodium hydroxide. The radioactivity and the protein concentration of each cell lysate were determined by liquid scintillation counting and the protein assay using Pierce BCA reagent.
One may read the IC50 as the concentration needed to halve the response being measured. The low end stands for higher potency, the high end for lower potency. `CCCCc1ccc(C(=O)N2CCC(n3c(=O)[nH]c4ccccc43)CC2)cc1` [Compound 34, 1-[1-(4-Butyl-benzoyl)-piperidin-4-yl]-1,3-dihydro-benzoimidazol-2-one]: the IC50 fell in the range of 0.1 to 4 µM.
In the case of `CCCCc1ccc(C(=O)N2CCC(n3c(=O)n(C)c4ccccc43)CC2)cc1` [Compound 150, 1-[1-(4-Butyl-benzoyl)-piperidin-4-yl]-3-methyl-1,3-dihydro-benzoimidazol-2-one] it was 0.1 to 4 µM; in that of `CCCCc1ccc(C(=O)N2CCC(n3c(=O)[nH]c4cc(F)ccc43)CC2)cc1` [Compound 160, 1-[1-(4-Butyl-benzoyl)-piperidin-4-yl]-5-fluoro-1,3-dihydro-benzoimidazol-2-one], 0.1 to 4 µM.
In the case of `CCCCc1ccc(C(=O)N2CC=C(n3c(=O)[nH]c4ccccc43)CC2)cc1` [Compound 181, 1-[1-(4-Butyl-benzoyl)-1,2,3,6-tetrahydro-pyridin-4-yl]-1,3-dihydro-benzoimidazol-2-one], the IC50 was 0.1 to 4 µM.
The figure for `CCCCc1ccc(C(=O)N2CCC(n3c(NCc4ccccn4)nc4ccccc43)CC2)cc1` [Compound 185, (4-Butyl-phenyl)-(4-{2-[(pyridin-2-ylmethyl)-amino]-benzoimidazol-1-yl}-piperidin-1-yl)-methanone] is 4.1 to 10 µM; for `CCCCCCNc1nc2ccccc2n1C1CCN(C(=O)c2ccc(CCCC)cc2)CC1` [Compound 188, (4-Butyl-phenyl)-[4-(2-hexylamino-benzoimidazol-1-yl)-piperidin-1-yl]-methanone] it is 0.1 to 4 µM.
The figure for `CCCCc1ccc(C(=O)N2CCC(n3c(=O)n(Cc4ccncc4)c4ccccc43)CC2)cc1` [Compound 198, 1-[1-(4-Butyl-benzoyl)-piperidin-4-yl]-3-pyridin-4-ylmethyl-1,3-dihydro-benzoimidazol-2-one] is 0.1 to 4 µM.
The figure for `CCCCc1ccc(C(=O)N2CCC(n3c(=O)[nH]c4cccnc43)CC2)cc1` [Compound 200, 3-[1-(4-Butyl-benzoyl)-piperidin-4-yl]-1,3-dihydro-imidazo[4,5-b]pyridin-2-one] is 0.1 to 4 µM; for `CCCCc1ccc(C(=O)N2CCC(n3c(C)nc4ccccc43)CC2)cc1` [Compound 203, (4-Butyl-phenyl)-[4-(2-methyl-benzoimidazol-1-yl)-piperidin-1-yl]-methanone] it is 4.1 to 10 µM; for `CCCCc1ccc(C(=O)N2CC=C(n3c(=O)n(C)c4ccccc43)CC2)cc1` [Compound 206, 1-[1-(4-Butyl-benzoyl)-1,2,3,6-tetrahydro-pyridin-4-yl]-3-methyl-1,3-dihydro-benzoimidazol-2-one] it is 0.1 to 4 µM.
The compound `CCCCc1ccc(C(=O)N2CC=C(n3c(=O)n(Cc4ccccc4)c4ccccc43)CC2)cc1` [Compound 208, 1-Benzyl-3-[1-(4-butyl-benzoyl)-1,2,3,6-tetrahydro-pyridin-4-yl]-1,3-dihydro-benzoimidazol-2-one] registered an IC50 of 0.1 to 4 µM.
In the case of `CCCCc1ccc(C(=O)N2CCC(n3c(NCc4ccccc4)nc4ccccc43)CC2)cc1` [Compound 300, [4-(2-Benzylamino-benzoimidazol-1-yl)-piperidin-1-yl]-(4-butyl-phenyl)-methanone] it was 0.1 to 4 µM; in that of `O=c1[nH]c2ccccc2n1C1CCN(S(=O)(=O)c2ccc3ccccc3c2)CC1` [Compound 304, 1-[1-(Naphthalene-2-sulfonyl)-piperidin-4-yl]-1,3-dihydro-benzoimidazol-2-one], 4.1 to 10 µM.
